Results on three molecules are retold here after ChEMBL document CHEMBL5034035, “Discovery of an Oxycyclohexyl Acid Lysophosphatidic Acid Receptor 1 (LPA1) Antagonist BMS-986278 for the Treatment of Pulmonary Fibrotic Diseases” (J Med Chem, 2021).

Each structure is given as a SMILES string. Converted amounts (≈) assume the structure as drawn.

Data set [1] is described as follows: Plasma clearance in Cynomolgus monkey at 3 mg/kg, po or 1 mg/kg, iv measured up to 24 hrs by LC-MS/MS analysis. It counts as ADME, organism-based, Macaca fascicularis.
Data set [2] is described as follows: Oral bioavailability in CD-1 mouse at 3 mg/kg measured up to 24 hrs by LC-MS/MS analysis. The note with it: in vivo. It counts as ADME, organism-based.
Data set [3] is described as follows: Oral bioavailability in Sprague-Dawley rat at 3 mg/kg measured up to 24 hrs by LC-MS/MS analysis. To be noted: in vivo. It counts as ADME, organism-based.
The nature of data set [4]: Oral bioavailability in cynomolgus monkey at 3 mg/kg measured up to 24 hrs by LC-MS/MS analysis. It counts as ADME, organism-based, Macaca fascicularis. To be noted: in vivo.
Data set [5] in a line: Elimination half life in CD-1 mouse at 3 mg/kg, po or 1 mg/kg, iv measured up to 24 hrs by LC-MS/MS analysis. It counts as ADME, organism-based. To be noted: in vivo, read-out: beta t1/2 (converted).
Data set [6] can be described thus: Elimination half life in cynomolgus monkey at 3 mg/kg, po or 1 mg/kg, iv measured up to 24 hrs by LC-MS/MS analysis. It counts as ADME, organism-based, Macaca fascicularis. The note with it: in vivo, read-out: beta t1/2 (converted).
Data set [7] is described as follows: Protein binding in Cynomolgus monkey plasma assessed as free fraction at 3 mg/kg, po or 1 mg/kg, iv measured up to 24 hrs by LC-MS/MS analysis. The data set is classed as ADME, organism-based, Macaca fascicularis.
Data set [8] addresses T1, hERG (Homo sapiens, UniProt Q12809). As to the kind of experiment: Inhibition of hERG at 10 uM by electrophysiological assay relative to control.
Data set [9] is described as follows: AUC (0 to 24 hrs) in Cynomolgus monkey plasma at 500 mg/kg, po administered for 4 weeks. The data set is classed as ADME, organism-based, Macaca fascicularis. Details: route oral, time 4 weeks, dose 500 mg/kg.
Data set [10] is described as follows: Hepatobiliary toxicity in Cynomolgus monkey assessed as bile duct hyperplasia measured up to 1 month. Details: species or system Macaca fascicularis. The note with it: in vivo, time <=1 months.
The nature of data set [11]: Metabolic stability in liver microsomes (unknown origin) assessed as half life. The data set is classed as ADME, Microsome.
Data set [12] is described as follows: Drug metabolism in human hepatocytes assessed as formation of acyl glucuronide metabolites at 10 uM measured after 2 hrs by LC/UV/MS analysis. The data set is classed as ADME, cell-based, Hepatocyte.
The nature of data set [13]: Hepatobiliary toxicity in Cynomolgus monkey assessed as cholangitis measured up to 1 month. Details: species or system Macaca fascicularis. To be noted: in vivo, time <=1 months.
Data set [14] in a line: Hepatobiliary toxicity in Cynomolgus monkey assessed as cholestasis measured up to 1 month. More on the design: species or system Macaca fascicularis. To be noted: time <=1 months.
Data set [15] deals with Phosphatidylcholine translocator ABCB4 (Homo sapiens, UniProt P21439). As to the kind of experiment: Inhibition of MDR3 (unknown origin). The data set is classed as ADME.
Chain of Phosphatidylcholine translocator ABCB4 (P21439 whole entry): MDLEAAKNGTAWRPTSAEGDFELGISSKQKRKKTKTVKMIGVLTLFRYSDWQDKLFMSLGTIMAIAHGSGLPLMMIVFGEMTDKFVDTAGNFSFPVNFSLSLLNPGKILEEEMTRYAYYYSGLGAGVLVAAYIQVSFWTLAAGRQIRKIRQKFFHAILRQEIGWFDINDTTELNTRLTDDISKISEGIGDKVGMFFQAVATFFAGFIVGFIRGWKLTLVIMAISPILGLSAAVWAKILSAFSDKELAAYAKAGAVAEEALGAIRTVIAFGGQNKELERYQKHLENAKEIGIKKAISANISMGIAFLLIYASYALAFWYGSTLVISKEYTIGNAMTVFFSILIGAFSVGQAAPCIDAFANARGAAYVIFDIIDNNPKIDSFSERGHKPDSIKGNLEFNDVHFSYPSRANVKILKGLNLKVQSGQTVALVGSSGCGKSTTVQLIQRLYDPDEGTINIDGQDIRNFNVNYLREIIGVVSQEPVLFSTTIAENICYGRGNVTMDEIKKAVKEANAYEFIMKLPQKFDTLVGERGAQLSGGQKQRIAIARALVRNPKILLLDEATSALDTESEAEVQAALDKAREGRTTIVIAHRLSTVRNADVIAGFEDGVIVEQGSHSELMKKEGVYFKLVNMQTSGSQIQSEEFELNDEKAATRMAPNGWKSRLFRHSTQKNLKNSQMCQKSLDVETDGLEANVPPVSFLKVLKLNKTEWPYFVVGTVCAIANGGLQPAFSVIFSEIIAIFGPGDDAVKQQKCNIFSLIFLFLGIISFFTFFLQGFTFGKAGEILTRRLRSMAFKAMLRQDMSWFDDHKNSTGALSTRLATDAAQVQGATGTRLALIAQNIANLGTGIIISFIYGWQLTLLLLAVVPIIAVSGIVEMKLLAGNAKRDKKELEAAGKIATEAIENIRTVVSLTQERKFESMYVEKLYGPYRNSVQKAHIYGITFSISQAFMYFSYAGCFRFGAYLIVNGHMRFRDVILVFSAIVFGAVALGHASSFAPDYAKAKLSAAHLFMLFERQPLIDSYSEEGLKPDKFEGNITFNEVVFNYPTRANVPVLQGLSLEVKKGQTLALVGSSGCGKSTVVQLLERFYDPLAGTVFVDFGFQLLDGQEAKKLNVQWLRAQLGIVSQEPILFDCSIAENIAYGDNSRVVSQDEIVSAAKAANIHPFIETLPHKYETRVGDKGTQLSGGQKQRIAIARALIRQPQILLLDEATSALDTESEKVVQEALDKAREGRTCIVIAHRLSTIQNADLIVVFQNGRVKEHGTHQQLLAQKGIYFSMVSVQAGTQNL
Data set [16] is described as follows: Hepatobiliary toxicity in Cynomolgus monkey assessed as cholestasis at up to 150 mg/kg/day measured up to 9 month. The data set is classed as organism-based, Macaca fascicularis. To be noted: in vivo, time <=9 months.
Data set [17] is described as follows: Hepatobiliary toxicity in Sprague-Dawley rat assessed as cholestasis at up to 100 mg/kg/day measured up to 6 month. It counts as organism-based. To be noted: in vivo, time <=6 months.
Data set [18] in a line: Hepatobiliary toxicity in Sprague-Dawley rat assessed as bile duct hyperplasia at up to 100 mg/kg/day measured up to 6 months. To be noted: in vivo. It counts as organism-based.
Data set [19] deals with T1, hERG. As to the kind of experiment: Inhibition of hERG at 30 uM by electrophysiological assay relative to control.
Data set [20] in a line: Aqueous solubility of compound at pH 7.5. It counts as physicochemical.
Data set [21] has as its system Rattus norvegicus. As to the kind of experiment: Anti-fibrotic activity in Sprague-Dawley rat model of bleomycin-induced lung fibrosis assessed as decrease in bleomycin-induced collagen deposition at 3 mg/kg, po BID followed by tracheal administration of bleomycin on day 8 and measured on day 21 by Masson's trichrome staining based HALO densitometric analysis relative to control. It counts as functional. Details: scale not given: the % may be the effect or the level left. To be noted: time 21 day.

For data set [22], the system named is Rattus norvegicus. As to the kind of experiment: Anti-fibrotic activity in Sprague-Dawley rat model of bleomycin-induced lung fibrosis assessed as decrease in bleomycin-induced collagen deposition at 10 mg/kg, po BID followed by tracheal administration of bleomycin on day 8 and measured on day 21 by Masson's trichrome staining based HALO densitometric analysis relative to control. It counts as functional. To be noted: time 21 day. More on the design: scale not given: the % may be the effect or the level left.

A short description of data set [23]: Hepatobiliary toxicity in Sprague-Dawley rat assessed as cholangitis at up to 100 mg/kg/day measured up to 6 months. The note with it: in vivo. It counts as organism-based.
Data set [24] in a line: Hepatobiliary toxicity in Cynomolgus monkey assessed as cholangitis at up to 150 mg/kg/day measured up to 9 months. To be noted: in vivo. It counts as organism-based, Macaca fascicularis.
Data set [25] is described as follows: AUC (0 to 24 hrs) in Sprague-Dawley rat plasma at 300 mg/kg/day. It counts as ADME, organism-based. More on the design: time < 24 hr, dose 300 mg/kg/day.
Data set [26] is described as follows: AUC (0 to 24 hrs) in Cynomolgus monkey plasma at 150 mg/kg/day. Details: time < 24 hr, dose 150 mg/kg/day. It counts as ADME, organism-based, Macaca fascicularis.
Data set [27] is described as follows: Drug metabolism in dog hepatocytes assessed as carbamate hydrolytic product formation at 10 uM measured after 2 hrs by LC/UV/MS analysis. It counts as ADME, cell-based, Canis lupus familiaris, Hepatocyte.
Data set [28] in a line: Drug metabolism in monkey hepatocytes assessed as carbamate hydrolytic product formation at 10 uM measured after 2 hrs by LC/UV/MS analysis. To be noted: rhesus monkey. The data set is classed as ADME, cell-based, Macaca mulatta, Hepatocyte.
Data set [29] can be described thus: Drug metabolism in mouse hepatocytes assessed as carbamate hydrolytic product formation at 10 uM measured after 2 hrs by LC/UV/MS analysis. The data set is classed as ADME, cell-based, Hepatocyte.
For data set [30], the system named is Rattus norvegicus. As to the kind of experiment: Anti-fibrotic activity in Sprague-Dawley rat model of bleomycin-induced lung fibrosis assessed as decrease in bleomycin-induced collagen deposition at 30 mg/kg, po BID followed by tracheal administration of bleomycin on day 8 and measured on day 21 by Masson's trichrome staining based HALO densitometric analysis relative to control. It counts as functional. Details: scale not given: the % may be the effect or the level left.

Data set [31] can be described thus: Hepatobiliary toxicity in Cynomolgus monkey assessed as bile duct hyperplasia at up to 150 mg/kg/day measured up to 9 months. To be noted: in vivo. It counts as organism-based, Macaca fascicularis.
The nature of data set [32]: Drug metabolism in human hepatocytes assessed as N-demethylation metabolite formation at 10 uM measured after 2 hrs by LC/UV/MS analysis. It counts as ADME, cell-based, Hepatocyte.
A short description of data set [33]: Drug metabolism in monkey hepatocytes assessed as N-demethylation metabolite formation at 10 uM measured after 2 hrs by LC/UV/MS analysis. The note with it: rhesus monkey. The data set is classed as ADME, cell-based, Macaca mulatta, Hepatocyte.
The nature of data set [34]: Drug metabolism in rat hepatocytes assessed as N-demethylation metabolite formation at 10 uM measured after 2 hrs by LC/UV/MS analysis. It counts as ADME, cell-based, Hepatocyte.
Data set [35] can be described thus: animal or person. The note with it: Mus musculus, CD-1.
The nature of data set [36]: animal or person. The note with it: Mus musculus, CD-1. The source holds these as a separate data set.
The test system of data set [37] is Rattus norvegicus. As to the kind of experiment: Anti-fibrotic activity in Sprague-Dawley rat model of bleomycin-induced lung fibrosis assessed as decrease in bleomycin-induced collagen deposition by measuring decrease in PSR-stained lung sections at 30 mg/kg, po BID for 21 days followed by tracheal administration of bleomycin by PSR staining based HALO densitometric analysis relative to control. It counts as functional. More on the design: scale not given: the % may be the effect or the level left. To be noted: time 21 day.

The nature of data set [38]: AUC (0 to 24 hrs) in Cynomolgus monkey plasma at 50 mg/kg, po administered for 7 days. The data set is classed as ADME, organism-based, Macaca fascicularis. Details: route oral, time 7 day, dose 50 mg/kg.
In another data set the target is hERG (KCNH2) (Homo sapiens, UniProt Q12809). As to the kind of experiment: Inhibition of hERG at 15 uM by electrophysiological assay relative to control.
Chain of hERG (KCNH2) (Q12809 whole entry): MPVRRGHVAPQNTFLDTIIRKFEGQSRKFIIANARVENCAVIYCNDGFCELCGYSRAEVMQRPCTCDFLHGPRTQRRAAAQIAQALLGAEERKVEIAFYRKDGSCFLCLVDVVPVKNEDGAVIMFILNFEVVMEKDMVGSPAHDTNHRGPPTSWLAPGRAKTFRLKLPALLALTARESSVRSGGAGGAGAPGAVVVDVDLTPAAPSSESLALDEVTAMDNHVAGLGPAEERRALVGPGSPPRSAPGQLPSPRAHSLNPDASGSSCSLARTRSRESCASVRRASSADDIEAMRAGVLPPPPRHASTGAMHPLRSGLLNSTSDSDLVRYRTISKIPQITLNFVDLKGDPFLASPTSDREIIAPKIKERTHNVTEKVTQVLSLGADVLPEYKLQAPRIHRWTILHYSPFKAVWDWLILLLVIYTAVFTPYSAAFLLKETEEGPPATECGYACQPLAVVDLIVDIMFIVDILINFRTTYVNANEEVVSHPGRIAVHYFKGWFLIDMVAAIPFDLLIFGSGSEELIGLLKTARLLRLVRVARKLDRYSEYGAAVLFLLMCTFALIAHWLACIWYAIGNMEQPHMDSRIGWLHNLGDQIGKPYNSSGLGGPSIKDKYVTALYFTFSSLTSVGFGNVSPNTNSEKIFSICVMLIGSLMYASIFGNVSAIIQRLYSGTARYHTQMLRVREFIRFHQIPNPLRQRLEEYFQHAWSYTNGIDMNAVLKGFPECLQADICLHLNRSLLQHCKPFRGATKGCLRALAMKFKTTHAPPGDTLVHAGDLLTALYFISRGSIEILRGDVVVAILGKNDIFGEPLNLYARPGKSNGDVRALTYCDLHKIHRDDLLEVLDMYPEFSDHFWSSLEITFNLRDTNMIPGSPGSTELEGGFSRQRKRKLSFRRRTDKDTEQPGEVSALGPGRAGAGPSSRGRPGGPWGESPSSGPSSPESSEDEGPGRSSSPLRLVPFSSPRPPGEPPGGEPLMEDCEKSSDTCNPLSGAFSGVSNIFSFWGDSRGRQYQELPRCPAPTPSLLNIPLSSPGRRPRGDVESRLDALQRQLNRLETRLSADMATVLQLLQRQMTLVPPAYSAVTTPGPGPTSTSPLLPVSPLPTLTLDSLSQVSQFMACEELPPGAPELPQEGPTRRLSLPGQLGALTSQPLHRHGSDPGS

T1 sequence (Q12809 whole entry): as above

For the molecule `Cc1nc(-c2nnn(C)c2COC(=O)N(C)CC2CCC2)ccc1O[C@H]1CCC[C@H](C(=O)O)C1`, the clearance in [1] turned out to be 17 mL/min/kg. The bioavailability in [2] was found to be 91%; in [3] it was 69%; in data set [4] it was 65%. The half-life in data set [5] was 1.5 h; in data set [6], 14 h; in [11], more than 0.917 h. Besides, the fraction unbound at 24 h in data set [7] was 0.009. The molecule further showed an inhibition at 10 µM at hERG [8] of 6%. The AUC at 672 h in [9] turned out to be 962 µg·h/mL. Besides, the Activity entry in data set [10], in data set [13] and in [14] was “Non-Toxic” throughout. In [12], the Drug metabolism entry is on record as “Metabolite_Detected”.
Molecule `CCCN(C)C(=O)OCc1c(-c2ccc(O[C@H]3CCC[C@H](C(=O)O)C3)c(C)n2)nnn1C` [ADMILPARANT] registered a clearance in data set [1] of 2 mL/min/kg. In addition, the bioavailability in data set [2] stood at 70%; in data set [3], 100%; in data set [4], 79%. The values for the half-life in [5] and in data set [6] were 2.5 h and 11 h, respectively. Also, the fraction unbound at 24 h in data set [7] is 0.008. In addition, the IC50 in data set [15] was more than 100 µM; in “animal or person [35]”, 174 µM; in the data set “animal or person [36]” it was 48 µM. Further, the Activity result is reported as “Non-Toxic” in data set [16]; “Non-Toxic” in data set [17]; “Non-Toxic” in [18]; 48% with Rattus norvegicus [21]; 56% with Rattus norvegicus [22]; “Non-Toxic” in data set [23]. The Activity result in [24] was “Non-Toxic”; with Rattus norvegicus [30], 41%; in data set [31] it was “Non-Toxic”. The same molecule had an inhibition at 30 µM at hERG [19] of 35%. The molecule further yielded a solubility in [20] of 6210 µg/mL (≈ 13.9 mM). Also, the area under the curve (AUC) at 24 h in data set [25] and in data set [26] was 1140 µg·h/mL each time. Besides, the Drug metabolism result in data set [27], in [28], in [29], in data set [32], in [33] and in data set [34] was “Metabolite_Detected” throughout.
With `Cc1noc(-c2ccc(-c3ccc(C4(C(=O)O)CC4)cc3)cc2)c1NC(=O)O[C@H](C)c1ccccc1` [BMS-986020], half-maximal inhibition in data set [15] (IC50) was put at 7.5 µM. In addition, in the data set on Rattus norvegicus [37], the Activity was 63%. Besides, the AUC at 168 h in data set [38] stood at 74 µg·h/mL. At hERG (KCNH2), this molecule had an inhibition at 15 µM of 7%.
